Patent US12427140B2, “4-[5-[(rac)-1-[5-(3-chlorophenyl)-3-isoxazolyl]ethoxy]-4-methyl-4H-1,2,4-triazol-3-yl]pyridine for use in prevention and/or treatment of pain in an animal” (priority 2019, dated 2025)

Key:
[1] = cited from earlier work
[2] = Dissolution of TT001 in I.V. formulation vehicle; format: physicochemical; conditions: 0.1 to 10 mg/ml in 40% w/v HPβCD solution in water for injection; a couple of hours for complete dissolution
Method: Formulation Method for the Preparation of TT001 for I.V. Dosing, 0.1 to 10 mg/ml
The formulation method is applicable at concentrations in formulation between 0.1 and 10 mg/mL corresponding to 0.262 and 26.2 μmol/mL
Preparation of 40% w/v HPβCD solution in water for injection
Excipients Hydroxypropyl-β-cyclodextrin, Kleptose, Roquette (HPβCD) 400 mg (40% w/v)
Water for injection to 1 ml (1.13 g)
Preparation of TT001 I.V. formulations between 0.1 and 10 mg/ml
Vehicle (40% w/v HPβCD solution in water for injection) to 1 ml (1.13 g)

[3] = Adverse effect on kidneys; conditions: in vivo
[4] = system: pain in dogs with chronic osteoarthritis; conditions: cited from earlier work

Row | SMILES | effect on TLESR/reflux ([1]; high dose of 13 mg (about 0.19 mg/kg), 2 to 3 hours after food-intake) | side effects ([1]; high doses of 13 mg) | effect on reflux ([1]; prior to food intake and at 1-2 hours after food intake) | dissolution [2] | adverse effect on kidneys [3] | pain killer effect in dogs [4]
1 | C[C@@H](Oc1nnc(-c2ccncc2)n1C)c1cc(-c2cccc(Cl)c2)on1 [TT001, 4-[5-[(1R)-1-[5-(3-Chlorophenyl)-3-isoxazolyl]ethoxy]-4-methyl-4H-1,2,4-triazol-3-yl]pyridine] | some effect | Some serious side effects | no significant effect | moderate | not shown any adverse effect on kidneys | 
2 | COc1cccc(C2(O)CCCCC2CN(C)C)c1 (stereo not drawn) [Tramadol] |  |  |  |  |  | do not occur
